Measured values taken from patent publication US9487479B2, “Small molecule inhibitors of N-terminus activation of the androgen receptor” (The University of British Columbia, priority 2008, dated 2016).

Key:
androgen receptor (AR) = biological target: T1, androgen receptor (AR) (Homo sapiens, UniProt P10275, T878A); test: PSA (6.1 kb)-luciferase reporter assay in LNCaP cells; type: cell-based; details: R1881 1 nM, 24 hours; for inhibition of R1881 induction of PSA (6.1)-luciferase: 1 hour pretreatment
T1 construct: endogenous in cells; host or cells: LNCaP human prostate cancer cells
T1 sequence (P10275 1-920 T878A): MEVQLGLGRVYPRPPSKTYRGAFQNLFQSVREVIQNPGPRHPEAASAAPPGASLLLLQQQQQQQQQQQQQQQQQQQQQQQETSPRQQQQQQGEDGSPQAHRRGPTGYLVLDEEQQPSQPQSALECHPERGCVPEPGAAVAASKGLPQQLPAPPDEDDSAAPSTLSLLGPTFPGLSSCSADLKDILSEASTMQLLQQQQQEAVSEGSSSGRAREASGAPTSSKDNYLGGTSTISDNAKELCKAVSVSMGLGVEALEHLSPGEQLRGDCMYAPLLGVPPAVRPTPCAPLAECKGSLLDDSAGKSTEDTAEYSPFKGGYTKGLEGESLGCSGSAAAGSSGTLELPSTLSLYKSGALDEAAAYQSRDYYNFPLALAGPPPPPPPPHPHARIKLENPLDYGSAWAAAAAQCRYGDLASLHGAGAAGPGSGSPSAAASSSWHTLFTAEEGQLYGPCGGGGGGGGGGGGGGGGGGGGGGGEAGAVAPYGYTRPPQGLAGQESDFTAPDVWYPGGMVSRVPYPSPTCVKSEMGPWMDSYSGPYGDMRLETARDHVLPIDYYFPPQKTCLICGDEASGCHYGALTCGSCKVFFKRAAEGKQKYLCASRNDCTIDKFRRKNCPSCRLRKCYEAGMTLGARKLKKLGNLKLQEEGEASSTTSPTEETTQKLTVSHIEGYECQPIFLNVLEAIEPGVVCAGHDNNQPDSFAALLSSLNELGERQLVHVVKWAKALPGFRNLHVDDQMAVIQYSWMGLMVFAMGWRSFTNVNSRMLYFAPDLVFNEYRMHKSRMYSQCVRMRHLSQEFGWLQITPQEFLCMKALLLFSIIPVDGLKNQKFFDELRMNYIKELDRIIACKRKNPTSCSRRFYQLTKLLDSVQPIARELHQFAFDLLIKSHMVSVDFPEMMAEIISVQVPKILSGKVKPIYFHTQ
Method: White bars represent no steroid (ethanol control). Wherein glucocorticoid receptor (GR) and progesterone receptor (PR).
The cells were harvested 24 hours later and analyzed for luciferase activity. The data is normalized to protein that was measured using Bradford assay.
Sequence similarities of amino acids in the AR with related human steroid receptors (glucocorticoid receptor (GR) and progesterone receptor (PR)) are significant in some domains such as the DNA-binding-domain (DBD). Although the AR-NTD shares less than 15% homology with the PR and GR, these receptors do interact with some of the same proteins such as SRC-1 (steroid receptor coactivator-1). […] Cells were co-transfected with expression plasmids for full-length hGR and PRβ and the relative reporter (i.e., pGR-Luc or PRE-E1b-Luc reporters). Cells were then treated with ethanol vehicle, dexamethasone (GR), 4-pregnene-3,20 dione (progesterone) (PR) followed by measurement of luciferase activity.
Activation of the endogenous AR was measured in LNCaP human prostate cancer cells by measuring an androgen-responsive reporter containing androgen response elements (AREs). The PSA (6.1 kb)-luciferase reporter gene construct contains several well-characterized AREs and is induced by androgen.

PSA mRNA = test: Androgen-induced PSA mRNA levels in LNCaP cells (qRT-PCR); type: cell-based, human; details: R1881 1 nM, 16 hours; for inhibition of androgen-induced levels of PSA mRNA: 10 μg/ml, 1 hour pretreatment
Method: Levels of PSA mRNA were measured by quantitative real-time (qRT)-PCR and normalized to levels of GAPDH mRNA (housekeeping gene). White bar: no R1881. Black bars: R1881 (1 nM). MNE: mean normalized expression. DMSO (no R1881) was arbitrarily set at 1.0 for each individual experiment. Bars represent the mean±SE from 3 separate experiments using triplicate technical samples from each experiment.
PSA is an androgen-regulated gene containing several well-characterized androgen response elements (AREs) in the enhancer and promoter regions. Levels of PSA mRNA are induced by androgen by a mechanism dependent androgen receptor. To test if sintokamides would also block endogenous gene expression induced by androgen, levels of PSA mRNA were measured in response to the synthetic androgen R1881.

LNCaP cells = test: Androgen-dependent proliferation of LNCaP cells (BrdU incorporation); type: cell-based, human; details: R1881 0.1 nM, 3 days
Method: BrdU incorporation was measured 3 days later to indicate changes in proliferation in response to androgen (see FIG. 3B).

Row | Molecule | inhibition of R1881 induction of PSA (6.1)-luciferase (androgen receptor (AR); 5 μg/ml) | inhibition of androgen-induced levels of PSA mRNA (PSA mRNA) | also measured
1 | CCC(=O)N[C@H](C[C@H](C)C(Cl)Cl)C(=O)N1C(=O)C=C(OC)[C@@H]1C[C@H](C)C(Cl)Cl [CB1.1, Sintokamide C] | inhibition |  | 
2 | CCC(=O)N[C@H](C[C@H](C)C(Cl)(Cl)Cl)C(=O)N1C(=O)C=C(OC)[C@@H]1CC(C)C [CB2.1, Sintokamide E] | inhibition |  | 
3 | CCC(=O)N[C@H](C[C@H](C)C(Cl)(Cl)Cl)C(=O)N1C(=O)C=C(OC)[C@@H]1C[C@H](C)C(Cl)(Cl)Cl [CB4.0, Sintokamide B] | inhibition | inhibit | 
4 | C[C@]1(O)CC[C@H]2[C@@H]3CCC4=CC(=O)CCC4=C3C=C[C@@]21C [Sintokamide R1881, R1881, reference compound] |  |  | induction of PSA-luciferase activity (androgen receptor (AR)): approximately 6 fold; induction of levels of PSA mRNA (PSA mRNA): at least 3 fold; proliferation over control (BrdU incorporation) (LNCaP cells): increased proliferation over control
5 | CCC(=O)N[C@H](CC(C)C)C(=O)N1C(=O)C=C(OC)[C@@H]1CC(C)C [non-chlorinated sintokamide, N—((R)-1-((S)-2-isobutyl-3-methoxy-5-oxo-2,5-dihydro-1H-pyrrol-1-yl)-4-methyl-1-oxopentan-2-yl)propionamide] |  |  | inhibition of R1881 induction of PSA (6.1)-luciferase (androgen receptor (AR); 10 μM): some activity
6 | Dysamide A [CB3.0] | some activity | inhibit | inhibition of R1881 induction of PSA (6.1)-luciferase (androgen receptor (AR); 5 μg/ml, listed as Dysimide A): inhibition
